Assay results: patent US11974574B2, “Compositions and related methods for modulating endosymbionts” (Flagship Pioneering Innovations V, Inc., priority 2017, dated 2024)

Assays:
Buchnera = test: BCR-4 PNA leaf perfusion, Buchnera/aphid copies by qPCR; assay type: in vivo; conditions: dead aphids collected 5 and 6 days post-treatment, water approximately 20
Description: After 5 and 6 days of treatment, DNA was extracted from dead aphids from each treatment group. Briefly, the aphid body surface was sterilized by dipping the aphid into a 6% bleach solution for approximately 5 seconds. Aphids were then rinsed in sterile water and DNA was extracted from each individual aphid using a DNA extraction kit (Qiagen, DNeasy kit) according to manufacturer's instructions. DNA concentration was measured using a nanodrop nucleic acid quantification, and Buchnera and aphid DNA copy numbers were measured by qPCR. The primers used for Buchnera were Buch_groES_18F ([…]; SEQ ID NO: 101) and Buch_groES_98R ([…]; SEQ ID NO: 102) (Chong and Moran, 2016 PNAS). The primers used for aphid were ApEF1a 107F ([…]; SEQ ID NO: 103) and ApEF1a 246R ([…]; SEQ ID NO: 104) (Chong and Moran, 2016 PNAS). qPCR was performed using a qPCR amplification ramp of 1.6 degrees C./s and the following conditions: 1) 95° C. for 10 minutes, 2) 95° C. for 15 seconds, 3) 55° C. for 30 seconds, 4) repeat steps 2-3 40×, 5) 95° C. for 15 seconds, 6) 55° C. for 1 minute, 7) ramp change to 0.15 degrees C./s, 8) 95° C. for 1 second. qPCR data was analyzed using analytic (Thermo Fisher Scientific, QuantStudio Design and Analysis) software. […]

BCR-4 [1] = test: BCR-4 PNA microinjection, BCR-4 expression by RT-qPCR (Example 18); assay type: in vivo, A. pisum; conditions: microinjection 20 nl of 321 ng/μl; 4th and 5th instar; after 7 days; relative to Actin
Description: (§1) Microinjection was performed using NanoJet III Auto-Nanoliter Injector with an in-house pulled borosilicate needle (Drummond Scientific; Cat #3-000-203-G/XL). Aphids were transferred using a paint brush to a tubing system connected to vacuum which held them in place during the injection. The injection site was at the ventral thorax of the aphid. The injection solutions were water (negative control) or 321 ng/μl of BCR-4 PNA in water. The injection volume was 20 nl for adult (4th and 5th instar) aphids at a rate of 2 nl/sec. Each treatment group had approximately the same number of individuals injected from each of the collection plants. After injection, aphids were released into a petri dish onto fava bean leaves that had stems in an Eppendorf tube filled with 1 ml water. Survival and fecundity were monitored over the course of the experiment.
(§2) Aphids LSR-1 (which harbor only Buchnera), A. pisum were grown on fava bean plants (Vroma Vicia faba from Johnny's Selected Seeds) in a climate-controlled incubator (16 h light/8 h dark photoperiod; 60±5% RH; 25±2° C.). […]
After 7 days of treatment, RNA was extracted from the remaining aphids in each treatment group. […] RNA concentrations were measured using a nanodrop nucleic acid quantification. BCR-4 relative expression was measured by RT-qPCR. […] RT-qPCR data was analyzed using analytic (Thermo Fisher Scientific, QuantStudio Design and Analysis) software. […]

BCR-4 [2] = test: BCR-4 PNA leaf perfusion, BCR-4 expression by RT-qPCR; assay type: in vivo, Acyrthosiphon pisum; conditions: living aphids after 7 days of treatment, relative to actin
Description: After 7 days of treatment, RNA was extracted from the remaining aphids in each treatment group. Briefly, the aphid body surface was sterilized by dipping the aphid into a 6% bleach solution for approximately 5 seconds. Aphids were then rinsed in sterile water and total RNA was extracted from each individual aphid using the RNA extraction kit (Qiagen miRNeasy kit) according to manufacturer's instructions. RNA concentrations were measured using a nanodrop nucleic acid quantification. BCR-4 relative expression was measured by RT-qPCR. The primers used were ApBCR-4F ([…]; SEQ ID NO: 107) and ApBCR-4R ([…]; SEQ ID NO: 108). The internal reference gene primers were for Actin (housekeeping gene). The forward sequence was […]; SEQ ID NO: 109 and the reverse sequence was […]; SEQ ID NO: 110. […] RT-qPCR data was analyzed using analytic (Thermo Fisher Scientific, QuantStudio Design and Analysis) software.
At 7 post-treatment, RNA was extracted from live aphids and RT-pPCR was done as described above (see Microinjection Delivery Experimental Design) to quantify expression of BCR-4. […]

Aphids LSR-1, A. pisum = test: BCR-4 PNA microinjection, aphid survival and fecundity; assay type: in vivo
Description: as §1, §2
The number of offspring produced from aphids in each treatment group was also assessed during the experiment and fecundity was represented as the number of offspring produced per adult at each time point assessed. […]

[3] = tested on: Aphids (LSR-1 strain, Acyrthosiphon pisum); test: BCR-4 PNA leaf perfusion, aphid development and survival; assay type: in vivo; conditions: leaf perfusion with 1 uM solution
Description: Aphids (LSR-1 strain, Acyrthosiphon pisum) were grown on fava bean plants (Vroma Vicia faba from Johnny's Selected Seeds) in a climate-controlled incubator (16 h light/8 h dark photoperiod; 60±5% RH; 25±2° C.). Prior to being used for aphid rearing, fava bean plants were grown in potting soil at 24° C. with 16 h of light and 8 h of darkness. To limit maternal effects or health differences between plants, 5-10 adults from different plants were distributed among 10 two-week-old plants and allowed to multiply to high density for 5-7 days. For experiments, first and second instar aphids were collected from healthy plants and divided into two different treatment groups: 1) those allowed to feed on leaves perfused with water, and, 2) those allowed to feed on leaves perfused with a BCR-4 PNA solution in water.
For each leaf perfusion, approximately 1 ml of water (negative control) or a 1 uM BCR-4 PNA solution was injected into a fava bean leaf. […] Aphids were monitored daily for survival and dead aphids were removed when they were discovered. In addition, the developmental stage (1st, 2nd, 3rd, 4th, and 5th instar) was determined daily throughout the experiment.
LSR-1 first and second instar aphids were divided into two groups as defined in Leaf Perfusion Experimental Design. Aphids were monitored daily and the number of aphids at each developmental stage was determined. […]

## YGRKKRRQRRR-CGTACAATAATCTCATGG [BCR-4 PNA]
Buchnera
  mean ratio Buchnera/aphid copies: approximately 57 Buchnera/aphid copies
BCR-4 [1]
  BCR-4 expression, fold higher in water-injected aphids than in treated aphids: approximately 2 fold
BCR-4 [2]
  median transcript levels of BCR-4, fold lower than water: approximately 3 fold
Aphids LSR-1, A. pisum; microinjection 20 nl of 321 ng/μl, 4th and 5th instar
  survival versus water-injected aphids: slight decrease in survival
Aphids LSR-1, A. pisum; microinjection, at 3 and 7 days post-treatment, water 5 offspring/adult
  fecundity, average offspring produced per adult: 4 offspring/adult
[3]; day 7, water 53%
  aphids alive: 30%
[3]; first and second instar LSR-1, day 2 post-treatment, water approximately 19%
  aphids in the 3rd instar stage: 8%
